Read-outs that look alike come from different tables or passages of the source.
Assays:
bacteria cells = test: Dark toxicity towards bacteria cells; format: cell-based; conditions: 10 μM, no light
[1] = cited from earlier work; for Formation of metabolites in the body: in vivo

For CCCCCCc1c2nc(c(-c3ccc(C(=O)O)cc3)c3ccc([nH]3)c(-c3ccc(C(=O)O)cc3)c3nc(c(CCCCCC)c4ccc1[nH]4)C(O)C3O)C=C2 (stereo not shown) [BLC 6066, 2,3-Dihydro-2,3-dihydroxy-15,20-dihexyl-5,10-bis(4-carboxy-phenyl)porphyrin], the “Dark toxicity towards bacteria cells” value (bacteria cells) was “strong dark toxicity”.
In the case of Oc1cccc(-c2c3nc(c(-c4cccc(O)c4)c4ccc([nH]4)c(-c4cccc(O)c4)c4nc(c(-c5cccc(O)c5)c5ccc2[nH]5)CC4)C=C3)c1 [mTHPC, m-tetrahydroxyphenylchlorin], the “Formation of metabolites in the body” value [1] is listed as “does not form metabolites”, the “Formation of metabolites in the body” value ([1]; listed as Temoporfin) is listed as “no known enzyme system in the mammalian body which can metabolize Temoporfin” and the “Effect of lipoprotein levels and cholesterol metabolism on pharmacokinetics in plasma” value ([1]; plasma) is listed as “neither lipoprotein levels nor cholesterol metabolism affects the pharmacokinetics”.
